{"source": "patent US6455470B1", "about": "“Herbicidal compositions” (priority 1994, dated 2002)", "type_in_all_cases": "in vivo", "key": {"[1]": {"test_system": "Lamium purpureum (red dead nettle)", "assay": "Growth room pot test, post-emergence phytotoxicity on LAMPU", "protocol": "(§1) A simple mathematical method to test the additivity of a pesticide combination is based on the equation: [formula]\n(§2) in which X and Y represent the percentage-of-inhibition of growth by toxicant A and B, respectively. E is the expected percentage-of-inhibition of growth by the mixture A and B. In order to show synergism, the actual efficacy should be higher than E.\n(§3) are formulated as suspension concentrates (SC) containing about 42% by weight of active ingredient.\n(§4) The compounds were tested alone and in admixture with a co-herbicide, which was also tested alone, against the following weeds:\n(§5) In the test procedure three replicate pots per treatment were randomly arranged through a growth room. The plants were treated about three weeks after planting and then submitted to a photoperiod of 14 hours per day; the temperature was 15 degrees Centigrade during the day and 9 degrees at night. All applications of test formulations were performed using a MARDRIVE sprayer, simulating as far as possible field conditions. The pressure was controlled at 2 bar and the water volume was 300 l/ha. The weed plants were at a true leaf stage between 0 to 6 leaves.\n(§6) Assessment of phytotoxicity was made by comparison with untreated control pots on an arbitrary scale from 0 to 100%, where 0 represents no visible effect and 100 represents a kill of all plants. The results in the tables and figures are presented as average values of three replicates."}, "[2]": {"test_system": "Alopecurus myosuroides (black grass)", "assay": "Growth room pot test, post-emergence phytotoxicity on ALOMY", "protocol": "as §1, §2, §4, §5\n(§7) The results in the tables and figures are presented as average values of three replicates."}, "[3]": {"test_system": "Avena fatua (wild oats)", "assay": "Growth room pot test, post-emergence phytotoxicity on AVEFA", "protocol": "as §1, §2, §4, §5, §7"}, "[4]": {"test_system": "Stellaria media (common chickweed)", "assay": "Growth room pot test, post-emergence phytotoxicity on STEME", "protocol": "as §1, §2, §4, §5, §7"}, "[5]": {"test_system": "Veronica persica (common field speedwell)", "assay": "Growth room pot test, post-emergence phytotoxicity on VERPE", "protocol": "as §1, §2, §3, §4, §5, §6"}, "[6]": {"test_system": "Galium aparine (bedstraw cleavers)", "assay": "Growth room pot test, post-emergence phytotoxicity on GALAP", "protocol": "as §1, §2, §3, §4, §5, §6"}, "[7]": {"test_system": "Matricaria chamomilla (mayweed)", "assay": "Growth room pot test, post-emergence phytotoxicity on MATCH", "protocol": "as §1, §2, §4, §5, §7"}, "[8]": {"test_system": "weeds", "assay": "Growth room pot test, overall synergy on the weeds", "conditions": "mixtures of sulfonylurea A or B with co-herbicide", "source_text": "It is generally admitted that, in case of synergism, the effectiveness of the mixture cannot be computed from that of the individual ingredients. Synergism is generally defined as the simultaneous action of two or more compounds in which the total response of an organism to the pesticide combination is greater that the sum of the individual components.\nas §1, §2, §4\nas §5, with “leaves. […]” for “leaves.”"}}, "note": "Values joined by “and” are separate entries in the source; they are usually repeats but may differ in a detail not shown here. Equal entries are not always repeated."}
{"compound": "Cn1c(-c2ccccc2)cc(-c2ccccc2)[n+]1C", "note": "[Difenzoquat, difenzoquat]", "values": [{"measurement": "Phytotoxicity of herbicide alone", "setting": "[1]; 600 g/ha", "value": 5, "unit": "%"}, {"measurement": "Phytotoxicity of herbicide alone", "setting": "[2]; 600 g/ha", "value": 5, "unit": "%"}, {"measurement": "Phytotoxicity of herbicide alone", "setting": "[3]; 600 g/ha", "value": 60, "unit": "%"}, {"measurement": "Phytotoxicity of herbicide alone", "setting": "[4]; 400 g/ha", "value": 0, "unit": "%"}, {"measurement": "Phytotoxicity of herbicide alone", "setting": "[5]; 200 g/ha", "value": 0, "unit": "%"}]}
{"compound": "Nc1c(Cl)c(F)nc(OCC(=O)O)c1Cl", "note": "[Fluroxypyr, fluroxypyr]", "values": [{"measurement": "Phytotoxicity of herbicide alone", "setting": "[1]; 1000 g/ha", "value": 50, "unit": "%"}, {"measurement": "Phytotoxicity of herbicide alone", "setting": "[2]; 100 g/ha", "value": 0, "unit": "%"}, {"measurement": "Phytotoxicity of herbicide alone", "setting": "[3]; 100 g/ha", "value": 0, "unit": "%"}, {"measurement": "Phytotoxicity of herbicide alone", "setting": "[6]; 50 g/ha", "value": 70, "unit": "%"}, {"measurement": "Phytotoxicity of herbicide alone", "setting": "[4]; 100 g/ha", "value": 60, "unit": "%"}, {"measurement": "Phytotoxicity of herbicide alone", "setting": "[5]; 100 g/ha", "value": 85, "unit": "%"}, {"measurement": "Phytotoxicity of herbicide alone", "setting": "[7]; 100 g/ha", "value": 20, "unit": "%"}]}
{"compound": "CC(C)c1ccc(NC(=O)N(C)C)cc1", "note": "[Isoproturon, isoproturon]", "values": [{"measurement": "Phytotoxicity of herbicide alone", "setting": "[1]; 500 g/ha", "value": 25, "unit": "%"}, {"measurement": "Phytotoxicity of herbicide alone", "setting": "[2]; 1000 g/ha", "value": 0, "unit": "%"}, {"measurement": "Phytotoxicity of herbicide alone", "setting": "[3]; 1000 g/ha", "value": 0, "unit": "%"}, {"measurement": "Phytotoxicity of herbicide alone", "setting": "[6]; 500 g/ha", "value": 0, "unit": "%"}, {"measurement": "Phytotoxicity of herbicide alone", "setting": "[4]; 500 g/ha", "value": 0, "unit": "%"}, {"measurement": "Phytotoxicity of herbicide alone", "setting": "[5]; 500 g/ha", "value": 0, "unit": "%"}]}
{"compound": "CCC(CC)Nc1c([N+](=O)[O-])cc(C)c(C)c1[N+](=O)[O-]", "note": "[Pendimethalin, pendimethalin]", "values": [{"measurement": "Phytotoxicity of herbicide alone", "setting": "[1]; 400 g/ha", "value": 70, "unit": "%"}, {"measurement": "Phytotoxicity of herbicide alone", "setting": "[2]; 800 g/ha", "value": 10, "unit": "%"}, {"measurement": "Phytotoxicity of herbicide alone", "setting": "[3]; 1200 g/ha", "value": 0, "unit": "%"}, {"measurement": "Phytotoxicity of herbicide alone", "setting": "[6]; 1200 g/ha", "value": 60, "unit": "%"}, {"measurement": "Phytotoxicity of herbicide alone", "setting": "[4]; 800 g/ha", "value": 0, "unit": "%"}, {"measurement": "Phytotoxicity of herbicide alone", "setting": "[5]; 1200 g/ha", "value": 90, "unit": "%"}, {"measurement": "Phytotoxicity of herbicide alone", "setting": "[7]; 800 g/ha", "value": 50, "unit": "%"}]}
{"compound": "CCS(=O)(=O)c1nc2ccccn2c1S(=O)(=O)NC(=O)Nc1nc(OC)cc(OC)n1", "note": "[SU - A]", "values": [{"measurement": "Phytotoxicity of herbicide alone", "setting": "[2]; 10 g/ha", "value": "10% and 0%"}, {"measurement": "Phytotoxicity of herbicide alone", "setting": "[2]; 20 g/ha", "value": 0, "unit": "%"}, {"measurement": "Phytotoxicity of herbicide alone", "setting": "[3]; 10 g/ha", "value": 0, "unit": "%"}, {"measurement": "Phytotoxicity of herbicide alone", "setting": "[3]; 30 g/ha", "value": "0% and 10%"}, {"measurement": "Phytotoxicity of herbicide alone", "setting": "[6]; 20 g/ha", "value": 60, "unit": "%"}, {"measurement": "Phytotoxicity of herbicide alone", "setting": "[4]; 10 g/ha", "value": "70% and 50%"}, {"measurement": "Phytotoxicity of herbicide alone", "setting": "[4]; 20 g/ha", "value": 60, "unit": "%"}, {"measurement": "Phytotoxicity of herbicide alone", "setting": "[4]; 30 g/ha", "value": "65% and 55%"}, {"measurement": "Phytotoxicity of herbicide alone", "setting": "[5]; 10 g/ha", "value": "30% and 20%"}, {"measurement": "Phytotoxicity of herbicide alone", "setting": "[5]; 20 g/ha", "value": "70% and 50%"}, {"measurement": "Phytotoxicity of herbicide alone", "setting": "[7]; 10 g/ha", "value": "70% and 40%"}, {"measurement": "Phytotoxicity of herbicide alone", "setting": "[7]; 20 g/ha", "value": "90% and 45%"}, {"measurement": "Phytotoxicity of herbicide alone", "setting": "[7]; 30 g/ha", "value": 70, "unit": "%"}]}
{"compound": "CCS(=O)(=O)c1nc2sccn2c1S(=O)(=O)NC(=O)Nc1nc(OC)cc(OC)n1", "note": "[SU - B]", "values": [{"measurement": "Phytotoxicity of herbicide alone", "setting": "[1]; 10 g/ha", "value": 0, "unit": "%"}, {"measurement": "Phytotoxicity of herbicide alone", "setting": "[2]; 20 g/ha", "value": 10, "unit": "%"}, {"measurement": "Phytotoxicity of herbicide alone", "setting": "[2]; 30 g/ha", "value": "20% and 40%"}, {"measurement": "Phytotoxicity of herbicide alone", "setting": "[3]; 20 g/ha", "value": "0% and 5%"}, {"measurement": "Phytotoxicity of herbicide alone", "setting": "[3]; 30 g/ha", "value": 0, "unit": "%"}, {"measurement": "Phytotoxicity of herbicide alone", "setting": "[6]; 20 g/ha", "value": 80, "unit": "%"}, {"measurement": "Phytotoxicity of herbicide alone", "setting": "[4]; 20 g/ha", "value": 20, "unit": "%"}, {"measurement": "Phytotoxicity of herbicide alone", "setting": "[4]; 30 g/ha", "value": 30, "unit": "%"}, {"measurement": "Phytotoxicity of herbicide alone", "setting": "[5]; 20 g/ha", "value": 50, "unit": "%"}, {"measurement": "Phytotoxicity of herbicide alone", "setting": "[7]; 20 g/ha", "value": 60, "unit": "%"}, {"measurement": "Phytotoxicity of herbicide alone", "setting": "[7]; 30 g/ha", "value": 90, "unit": "%"}]}
{"compound": "CC(C)N(C(=O)SCC(Cl)=C(Cl)Cl)C(C)C", "note": "[Triallate, triallate]", "values": [{"measurement": "Phytotoxicity of herbicide alone", "setting": "[1]; 1500 g/ha", "value": 50, "unit": "%"}, {"measurement": "Phytotoxicity of herbicide alone", "setting": "[2]; 1500 g/ha", "value": 50, "unit": "%"}, {"measurement": "Phytotoxicity of herbicide alone", "setting": "[3]; 1500 g/ha", "value": 65, "unit": "%"}, {"measurement": "Phytotoxicity of herbicide alone", "setting": "[4]; 1000 g/ha", "value": 10, "unit": "%"}, {"measurement": "Phytotoxicity of herbicide alone", "setting": "[5]; 500 g/ha", "value": 40, "unit": "%"}, {"measurement": "Phytotoxicity of herbicide alone", "setting": "[7]; 1500 g/ha", "value": 10, "unit": "%"}]}
{"compound": "CCOC(=O)[C@@H](C)Oc1ccc(Oc2nc3ccc(Cl)cc3o2)cc1", "note": "[fenoxaprop-P-ethyl]", "values": [{"measurement": "Synergistic effect on the weeds (observed higher than expected)", "setting": "[8]", "value": "synergized"}]}
{"compound": "imazamethabenz-methyl", "values": [{"measurement": "Phytotoxicity of herbicide alone", "setting": "[1]; 300 g/ha", "value": 60, "unit": "%"}, {"measurement": "Phytotoxicity of herbicide alone", "setting": "[2]; 300 g/ha", "value": 15, "unit": "%"}, {"measurement": "Phytotoxicity of herbicide alone", "setting": "[3]; 100 g/ha", "value": 30, "unit": "%"}, {"measurement": "Phytotoxicity of herbicide alone", "setting": "[4]; 100 g/ha", "value": 10, "unit": "%"}, {"measurement": "Phytotoxicity of herbicide alone", "setting": "[5]; 200 g/ha", "value": 0, "unit": "%"}, {"measurement": "Phytotoxicity of herbicide alone", "setting": "[5]; 300 g/ha", "value": 10, "unit": "%"}, {"measurement": "Phytotoxicity of herbicide alone", "setting": "[7]; 300 g/ha", "value": 5, "unit": "%"}]}
